The values below come from article PMC4951196, “The Lamin B receptor is essential for cholesterol synthesis and perturbed by disease-causing mutations” (eLife, 2016).

This experiment deals with T1, Lamin B receptor (LBR) (Homo sapiens, UniProt Q14739).
T1 construct: Flag-tagged LBR, WT, expressed in Expi293 cells and purified
T1 sequence (Q14739 1-615): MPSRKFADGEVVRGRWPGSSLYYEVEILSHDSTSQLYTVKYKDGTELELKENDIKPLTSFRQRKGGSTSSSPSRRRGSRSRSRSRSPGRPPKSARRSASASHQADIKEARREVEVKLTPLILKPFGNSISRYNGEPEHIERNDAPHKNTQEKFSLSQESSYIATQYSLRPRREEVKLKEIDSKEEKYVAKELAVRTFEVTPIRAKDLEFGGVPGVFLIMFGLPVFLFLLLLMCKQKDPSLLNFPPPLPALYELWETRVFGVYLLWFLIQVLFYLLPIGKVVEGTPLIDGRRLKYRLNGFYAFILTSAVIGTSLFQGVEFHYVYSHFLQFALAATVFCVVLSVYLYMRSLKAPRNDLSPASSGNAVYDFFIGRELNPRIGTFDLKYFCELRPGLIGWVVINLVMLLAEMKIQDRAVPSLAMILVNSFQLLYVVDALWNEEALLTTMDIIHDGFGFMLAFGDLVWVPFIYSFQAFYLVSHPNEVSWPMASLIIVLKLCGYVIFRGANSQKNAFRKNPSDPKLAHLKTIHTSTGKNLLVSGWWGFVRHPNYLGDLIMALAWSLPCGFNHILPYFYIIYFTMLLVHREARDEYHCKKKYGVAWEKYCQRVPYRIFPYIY
The experiment in a line: intrinsic tryptophan fluorescence titration of purified LBR. It counts as binding.

In turn, `NC(=O)C1=CN([C@@H]2O[C@H](COP(=O)(O)OP(=O)(O)OC[C@H]3O[C@@H](n4cnc5c(N)ncnc54)[C@H](OP(=O)(O)O)[C@@H]3O)[C@@H](O)[C@H]2O)C=CC1` [NADPH] registered a dissociation constant (Kd) of 24.2 µM.

The Kd is the constant that tells how readily two partners part at equilibrium. Read a high Kd as lower affinity.
